Data: patent US10532103B2, “Degradation of cyclin-dependent kinase 9 (CDK9) by conjugation of CDK9 inhibitors with E3 ligase ligand and methods of use” (Dana-Farber Cancer Institute, Inc., priority 2016, dated 2020)
Entries after “also recorded” stand apart in the source; their conditions may differ.

Legend:
Format in all cases: cell-based
[1] = biological target: T1, CDK9 (Homo sapiens, UniProt P50750); assay: Enzyme degradation assay (western blot) in Jurkat cells, CDK9
T1 construct: endogenous in cells; host or cells: Jurkat cells
T1 sequence (P50750 whole entry): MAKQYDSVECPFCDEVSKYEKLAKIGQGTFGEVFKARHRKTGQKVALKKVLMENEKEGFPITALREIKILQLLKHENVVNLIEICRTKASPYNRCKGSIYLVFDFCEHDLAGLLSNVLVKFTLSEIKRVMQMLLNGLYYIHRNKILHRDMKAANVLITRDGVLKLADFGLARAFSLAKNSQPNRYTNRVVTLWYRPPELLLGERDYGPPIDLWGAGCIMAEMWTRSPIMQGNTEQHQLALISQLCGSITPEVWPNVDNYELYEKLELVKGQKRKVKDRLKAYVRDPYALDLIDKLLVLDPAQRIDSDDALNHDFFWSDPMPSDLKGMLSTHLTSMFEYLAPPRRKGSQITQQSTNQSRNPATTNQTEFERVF
T1 sequence (O60563 whole entry partner): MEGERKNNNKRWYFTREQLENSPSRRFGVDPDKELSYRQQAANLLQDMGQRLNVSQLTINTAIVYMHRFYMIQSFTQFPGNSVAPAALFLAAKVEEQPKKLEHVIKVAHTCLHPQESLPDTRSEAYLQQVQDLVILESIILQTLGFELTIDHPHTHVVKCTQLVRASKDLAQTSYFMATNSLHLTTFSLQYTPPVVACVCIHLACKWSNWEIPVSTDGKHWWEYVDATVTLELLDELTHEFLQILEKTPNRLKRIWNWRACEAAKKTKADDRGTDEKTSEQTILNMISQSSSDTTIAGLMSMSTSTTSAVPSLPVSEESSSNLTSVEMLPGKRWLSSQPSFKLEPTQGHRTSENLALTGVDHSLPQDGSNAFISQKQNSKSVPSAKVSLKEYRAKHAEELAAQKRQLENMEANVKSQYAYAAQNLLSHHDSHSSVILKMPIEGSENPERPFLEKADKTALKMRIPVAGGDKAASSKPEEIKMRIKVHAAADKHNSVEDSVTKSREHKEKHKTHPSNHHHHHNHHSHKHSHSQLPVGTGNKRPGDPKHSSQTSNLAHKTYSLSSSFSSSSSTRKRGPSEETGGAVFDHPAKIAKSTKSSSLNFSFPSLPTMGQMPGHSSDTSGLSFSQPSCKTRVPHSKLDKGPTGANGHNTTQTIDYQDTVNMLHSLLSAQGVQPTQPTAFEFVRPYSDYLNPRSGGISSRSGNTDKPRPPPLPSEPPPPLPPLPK
Experimental: (§1) Cells are treated with a control or a bifunctional compound of the application alone or in combination with an agent that blocks proteasomal degradation at a single concentration or various concentrations. After treatment, cells are washed and harvested by resuspending in buffer and lysed on ice 30 minutes. Lysates are then cleared by centrifugation. Samples are boiled and equal amount of protein is loaded onto polyacrylamide gel. The gel is transferred to nitrocellulose and blotted for CDK13, CDK12, CDK9, CDK7, CDK2, CDK1, PolII serine 2 phosphorylation or Tubulin.
(§2) Jurkat cells were treated with DMSO (as a control) or 500 nM of SNS-032 or 500 nM of a bifunctional compound of the application (i.e., Compound I-1, Compound I-2, or Compound I-3) or in combination with 5 μM MG132 for 6 hours. MGl32 is an agent that blocks proteasomal degradation. After treatment, cells were washed and harvested by resuspending in RIPA lysis buffer ([…] Tris-HCl, […] NaCl, 1% NP-40, 0.5% sodium deoxycholate, and 1% SDS, pH 7.4, protease and phosphatase inhibitors) and lysed on ice 30 minutes. Lysates were cleared by centrifugation at 15,000 rpm 30 minutes. Samples were boiled and equal amounts of protein were loaded onto gel. The gel was transferred to nitrocellulose and blotted for CDK13, CDK12, CDK9, CDK7, CDK2, CDK1, or tubulin.
(§3) Alternatively, Jurkat cells were treated with DMSO (as a control) or various concentrations of Compound I-3 alone (about 312 nm, 625 nm, 1.25 uM, 2.5 uM, and 5 uM) or with 5 μM MG132. After treatment, cells were washed and harvested by resuspending in RIPA lysis buffer ([…] Tris-HCl, […] NaCl, 1% NP-40, 0.5% sodium deoxycholate, and 1% SDS, pH 7.4, protease and phosphatase inhibitors) and lysed on ice 30 minutes. Equal amount of protein was loaded onto gel and blotted for CDK13, CDK9, CDK7, CDK2, CDK1, or tubulin.
(§4) Jurkat cells were treated with a DMSO (as a control) or various concentrations SNS-032 or Compound I-3 for 6 hours. After treatment, cells were washed and harvested by resuspending in RIPA lysis buffer ([…] Tris-HCl, […] NaCl, 1% NP-40, 0.5% sodium deoxycholate, and 1% SDS, pH 7.4, protease and phosphatase inhibitors) and lysed on ice 30 minutes. Equal amount of protein was loaded onto gel and blotted for PolI serine 2 phosphorylation, CDK9, or tubulin.
as §4, with “500 nM of” for “a DMSO (as a control) or various concentrations SNS-032 or”, “I-3 for 15 minutes, 30 minutes, 1 hour, 2 hours, 3 hours, 4 hours, or 6 hours or DMSO control” for “I-3”, “CDK13, CDK12,” for “PolI serine 2 phosphorylation,”

[2] = biological target: T2, CDK12 (Homo sapiens, UniProt Q9NYV4); assay: Enzyme degradation assay (western blot) in Jurkat cells, CDK12; details: for degradation of CDK12: 6 hours
T2 construct: endogenous in cells; host or cells: Jurkat cells
T2 sequence (Q9NYV4 whole entry): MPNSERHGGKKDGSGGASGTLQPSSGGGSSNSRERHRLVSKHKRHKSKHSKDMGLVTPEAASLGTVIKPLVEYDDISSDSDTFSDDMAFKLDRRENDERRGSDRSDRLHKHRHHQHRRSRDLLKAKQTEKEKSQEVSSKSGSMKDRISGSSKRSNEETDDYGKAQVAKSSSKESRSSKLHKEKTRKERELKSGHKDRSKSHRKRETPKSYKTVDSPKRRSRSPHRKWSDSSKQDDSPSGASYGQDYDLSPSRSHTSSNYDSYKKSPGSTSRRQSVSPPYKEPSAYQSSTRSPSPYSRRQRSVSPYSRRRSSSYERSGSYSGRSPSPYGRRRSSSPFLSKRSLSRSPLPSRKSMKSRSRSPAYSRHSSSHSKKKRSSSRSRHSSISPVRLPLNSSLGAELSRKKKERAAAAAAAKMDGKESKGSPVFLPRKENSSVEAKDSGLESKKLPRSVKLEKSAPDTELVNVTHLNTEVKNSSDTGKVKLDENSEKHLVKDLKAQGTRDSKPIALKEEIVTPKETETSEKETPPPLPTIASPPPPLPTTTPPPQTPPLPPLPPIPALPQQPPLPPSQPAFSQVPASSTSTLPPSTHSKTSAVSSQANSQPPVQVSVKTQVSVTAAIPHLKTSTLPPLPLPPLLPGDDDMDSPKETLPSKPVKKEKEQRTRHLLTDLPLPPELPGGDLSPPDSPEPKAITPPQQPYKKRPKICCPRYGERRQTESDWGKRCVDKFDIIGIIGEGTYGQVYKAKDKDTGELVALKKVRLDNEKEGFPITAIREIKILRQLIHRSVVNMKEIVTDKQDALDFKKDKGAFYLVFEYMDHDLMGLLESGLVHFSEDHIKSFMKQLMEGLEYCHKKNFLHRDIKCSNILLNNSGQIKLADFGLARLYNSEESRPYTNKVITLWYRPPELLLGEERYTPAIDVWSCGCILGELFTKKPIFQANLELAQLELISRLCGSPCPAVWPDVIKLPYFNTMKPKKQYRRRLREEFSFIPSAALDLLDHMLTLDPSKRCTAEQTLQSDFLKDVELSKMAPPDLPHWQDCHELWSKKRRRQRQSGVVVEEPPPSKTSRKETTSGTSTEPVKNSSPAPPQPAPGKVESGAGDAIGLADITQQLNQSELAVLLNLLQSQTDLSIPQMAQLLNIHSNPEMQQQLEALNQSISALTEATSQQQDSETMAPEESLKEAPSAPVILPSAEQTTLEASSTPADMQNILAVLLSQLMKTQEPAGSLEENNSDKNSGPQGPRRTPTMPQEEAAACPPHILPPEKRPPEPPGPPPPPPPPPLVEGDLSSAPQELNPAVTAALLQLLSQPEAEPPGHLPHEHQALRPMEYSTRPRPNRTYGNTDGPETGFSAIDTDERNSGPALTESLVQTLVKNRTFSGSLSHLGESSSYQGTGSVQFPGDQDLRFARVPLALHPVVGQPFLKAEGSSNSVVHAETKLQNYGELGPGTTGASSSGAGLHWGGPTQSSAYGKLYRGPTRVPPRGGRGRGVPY
T2 sequence (O75909 whole entry partner): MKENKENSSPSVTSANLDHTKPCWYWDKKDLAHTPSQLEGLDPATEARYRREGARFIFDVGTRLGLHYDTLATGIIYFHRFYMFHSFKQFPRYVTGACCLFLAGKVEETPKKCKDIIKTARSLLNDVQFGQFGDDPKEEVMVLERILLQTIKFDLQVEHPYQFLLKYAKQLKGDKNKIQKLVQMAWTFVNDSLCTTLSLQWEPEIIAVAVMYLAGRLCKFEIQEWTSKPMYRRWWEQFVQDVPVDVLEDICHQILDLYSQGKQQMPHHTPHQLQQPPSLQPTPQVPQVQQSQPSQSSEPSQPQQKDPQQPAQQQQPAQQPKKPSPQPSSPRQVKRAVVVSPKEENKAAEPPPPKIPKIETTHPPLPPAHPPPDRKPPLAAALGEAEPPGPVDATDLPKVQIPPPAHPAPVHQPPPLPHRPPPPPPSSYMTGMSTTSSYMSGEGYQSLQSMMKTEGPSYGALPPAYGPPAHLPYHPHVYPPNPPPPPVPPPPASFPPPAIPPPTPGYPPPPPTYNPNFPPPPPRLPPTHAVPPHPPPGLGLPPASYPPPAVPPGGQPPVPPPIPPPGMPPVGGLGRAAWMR
Experimental: as §1, §2
as §4, with “500 nM of” for “a DMSO (as a control) or various concentrations SNS-032 or”, “I-3 for 15 minutes, 30 minutes, 1 hour, 2 hours, 3 hours, 4 hours, or 6 hours or DMSO control” for “I-3”, “CDK13, CDK12,” for “PolI serine 2 phosphorylation,”

[3] = biological target: T3, CDK13 (Homo sapiens, UniProt Q14004); assay: Enzyme degradation assay (western blot) in Jurkat cells, CDK13
T3 construct: endogenous in cells; host or cells: Jurkat cells
T3 sequence (Q14004 whole entry): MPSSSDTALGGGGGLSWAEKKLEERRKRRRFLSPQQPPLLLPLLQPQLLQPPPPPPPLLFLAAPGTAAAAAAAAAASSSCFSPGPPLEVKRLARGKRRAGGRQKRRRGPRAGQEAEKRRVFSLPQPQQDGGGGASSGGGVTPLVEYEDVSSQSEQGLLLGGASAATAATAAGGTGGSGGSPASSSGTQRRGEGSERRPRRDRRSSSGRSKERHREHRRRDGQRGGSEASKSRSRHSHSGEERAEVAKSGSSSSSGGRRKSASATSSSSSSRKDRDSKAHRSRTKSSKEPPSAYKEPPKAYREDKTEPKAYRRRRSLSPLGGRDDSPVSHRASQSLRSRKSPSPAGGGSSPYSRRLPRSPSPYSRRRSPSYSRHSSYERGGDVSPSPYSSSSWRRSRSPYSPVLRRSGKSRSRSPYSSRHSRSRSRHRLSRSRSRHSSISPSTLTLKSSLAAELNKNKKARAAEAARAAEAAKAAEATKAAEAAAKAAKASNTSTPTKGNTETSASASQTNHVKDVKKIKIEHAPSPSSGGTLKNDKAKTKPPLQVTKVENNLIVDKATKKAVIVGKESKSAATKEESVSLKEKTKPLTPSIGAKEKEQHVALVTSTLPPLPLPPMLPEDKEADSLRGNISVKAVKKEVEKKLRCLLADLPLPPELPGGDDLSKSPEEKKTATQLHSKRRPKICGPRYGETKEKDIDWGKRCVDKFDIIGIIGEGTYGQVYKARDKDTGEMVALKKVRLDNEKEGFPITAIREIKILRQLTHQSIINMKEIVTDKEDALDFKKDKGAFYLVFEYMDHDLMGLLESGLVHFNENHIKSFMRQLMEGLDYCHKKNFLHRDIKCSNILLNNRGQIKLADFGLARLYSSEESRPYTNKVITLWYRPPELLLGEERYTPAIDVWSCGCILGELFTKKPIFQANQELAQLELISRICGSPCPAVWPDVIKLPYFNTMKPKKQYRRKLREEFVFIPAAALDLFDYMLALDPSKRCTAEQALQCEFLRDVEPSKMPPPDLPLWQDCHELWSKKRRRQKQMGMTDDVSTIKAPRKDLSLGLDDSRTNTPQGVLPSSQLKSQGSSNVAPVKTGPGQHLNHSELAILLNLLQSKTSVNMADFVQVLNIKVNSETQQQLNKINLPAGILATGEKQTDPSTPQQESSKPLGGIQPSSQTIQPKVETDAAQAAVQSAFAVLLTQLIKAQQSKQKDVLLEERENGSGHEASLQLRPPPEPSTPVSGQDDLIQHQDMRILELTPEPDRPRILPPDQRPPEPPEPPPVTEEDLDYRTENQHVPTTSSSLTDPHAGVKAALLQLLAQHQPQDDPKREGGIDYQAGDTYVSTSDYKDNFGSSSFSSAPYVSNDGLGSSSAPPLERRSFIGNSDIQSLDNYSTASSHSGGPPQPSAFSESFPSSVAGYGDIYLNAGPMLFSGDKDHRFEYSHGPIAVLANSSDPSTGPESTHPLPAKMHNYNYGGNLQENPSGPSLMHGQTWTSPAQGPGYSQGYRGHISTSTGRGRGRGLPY
T3 sequence (O75909 whole entry partner): as the sequence (O75909 whole entry partner) above
Experimental: as §1, §2, §3
as §4, with “500 nM of” for “a DMSO (as a control) or various concentrations SNS-032 or”, “I-3 for 15 minutes, 30 minutes, 1 hour, 2 hours, 3 hours, 4 hours, or 6 hours or DMSO control” for “I-3”, “CDK13, CDK12,” for “PolI serine 2 phosphorylation,”

[4] = test system: Molt4 cereblon null cells (CRBN−/−); assay: Cell viability assay (celltiter glo), cereblon null cells; details: cereblon knockout (CRBN−/−) Molt4 cells, titration, 72 hours
Experimental: (§5) Wild-type or cereblon null cells are treated with various concentrations of a bifunctional compound of the invention and allowed to grow. Cells are then assayed to determine cell viability by measuring the amount of ATP present, which is an indicator of cell metabolic activity. Results are graphed as relative luminescent values.
(§6) Molt4 wild-type or cereblon null cells were treated with a titration of a bifunctional compound of the invention (i.e., Compound I-1, Compound I-2, or Compound I-3) and allowed to grow for 72 hours. Cells were assayed using celltiter glo (Promega) to determine cell viability by measuring the amount of ATP present, which is an indicator of cell metabolic activity. Results are graphed as relative luminescent values.

[5] = test system: PolII serine 2 phosphorylation; assay: Western blot for PolII serine 2 phosphorylation in Jurkat cells; details: various concentrations, 6 hours
Experimental: as §1, §4

[6] = test system: Molt4 wild-type cells; assay: Cell viability assay (celltiter glo), wild-type cells; details: wild-type (WT) Molt4 cells, titration, 72 hours
Experimental: as §5, §6

Row | degradation of CDK9 ([1]; 500 nM, 6 hours) | degradation of CDK9, various concentrations, with MG132 ([1]; with 5 μM MG132, 6 hours) | CDK12 levels over time ([2]; 500 nM, 15 minutes to 6 hours) | degradation of CDK12 ([2]; 500 nM) | CDK13 levels over time ([3]; 500 nM, 15 minutes to 6 hours) | degradation of CDK13 ([3]; 500 nM, 6 hours) | degradation of CDK13, various concentrations, with MG132 ([3]; with 5 μM MG132, 6 hours) | SMILES | degradation of CDK9 on co-treatment with MG132 ([1]; 500 nM + 5 uM MG132, 6 hours) | CDK9 levels over time ([1]; 500 nM, 15 minutes to 6 hours) | degradation of CDK9, various concentrations ([1]; about 312 nm to 5 uM, 6 hours) | degradation of CDK12 on co-treatment with MG132 ([2]; 500 nM + 5 uM MG132, 6 hours) | degradation of CDK13 on co-treatment with MG132 ([3]; 500 nM + 5 uM MG132, 6 hours) | degradation of CDK13, various concentrations ([3]; about 312 nm to 5 uM, 6 hours) | anti-proliferative effect [4] | serine 2 phosphorylation of PolII [5] | anti-proliferative effect [6]
1 | complete degradation | abolished degradation of CDK9 | unaffected | partial degradation | unaffected | partial degradation | abolished | CC(C)(C)c1cnc(CSc2cnc(NC(=O)C3CCN(CC(=O)NCCOCCOCCOCCNc4cccc5c4C(=O)N(C4CCC(=O)NC4=O)C5=O)CC3)s2)o1 (centres unmarked) [Compound I-3, N-(5-(((5-(tert-butyl)oxazol-2-yl)methyl)thio)thiazol-2-yl)-1-(14-((2-(2,6-dioxopiperidin-3-yl)-1,3-dioxoisoindolin-4-yl)amino)-2-oxo-6,9,12-trioxa-3-azatetradecyl)piperidine-4-carboxamide] | reduced; also recorded: largely inhibited | decrease in CDK9 levels over time; also recorded: degradation of CDK9 increased with time of exposure | specificity for CDK9 at lower concentrations; also recorded: degradation also increased | abolished; also recorded: largely inhibited | abolished; also recorded: largely inhibited | CDK13 degradation at higher concentrations; also recorded: degradation also increased | not in the CRBN−/− cells; also recorded: anti-proliferation was no longer observed | decreased serine 2 phosphorylation | showed antiproliferative effects; also recorded: caused anti-proliferation
2 | no degradation |  |  | no degradation |  | no degradation |  | CC(C)(C)c1cnc(CSc2cnc(NC(=O)C3CCNCC3)s2)o1 [SNS032, N-(5-(((5-(tert-butyl)oxazol-2-yl)methyl)thio)thiazol-2-yl)piperidine-4-carboxamide, reference compound] |  |  |  |  |  |  |  | decreased serine 2 phosphorylation | 
